Assay results as given in article PMC4552634, “A New Set of Chemical Starting Points with Plasmodium falciparum Transmission-Blocking Potential for Antimalarial Drug Discovery” (PLoS ONE, 2015).
Read-outs that look alike come from different tables or passages of the source.

Legend:
[1] = tested on: luciferase reaction (BacTiter-Glo); assay: Interference assay (inhibition of the BacTiter-Glo luciferase reaction); assay type: biochemical; design: concentration or dose not given beside the values; conditions: ATP interference assay
Experimental: To discard possible false-positive results, we performed an interference assay in parallel. […] […]. The ATP solution was made by dissolving ATP powder (ATP standard from the ATPlite 1 step assay kit, reference 6016731, Perkin Elmer) in culture medium. The positive control used was the Luciferase Inhibitor I Calbiochem (Merck, 119113) at 100 μM.

[2] = Cytotoxicity in HepG2 cells (intracellular ATP, ATPlite, 48 h); assay type: cell-based, human; conditions: human, HepG2 cells; IC50 per ratio column head; unit inferred; read-out: Cytotoxicity in HepG2
[3] = tested on: P. falciparum stage V gametocytes; assay: Gametocytocidal ATP bioluminescence assay (single point 5 μM and 1 μM, dose-response); assay type: cell-based, Plasmodium falciparum; conditions: for Ratio IC50 HepG2/IC50 P. falciparum: IC50 HepG2 divided by IC50 P. falciparum gametocytes
Experimental: Purified stage IV-V gametocytes were obtained as previously described [10]. Single point ATP bioluminescence assay and dose–response of positive hits was determined in accordance with the previously published protocol [10].

[4] = tested on: P. falciparum asexual stages; conditions: asexual stages; TCAMS data; read-out: IC50 asexual; cited from earlier work
HepG2 cells = assay: Cytotoxicity in HepG2 cells (intracellular ATP, ATPlite, 48 h); assay type: cell-based, human; conditions: HepG2 cells; IC50 per ratio column head; unit inferred
[5] = Plasmodium falciparum, P. falciparum gametocytes, average, read-out: IC50 Pf Gametocytes average, IC50 (µM) average
[6] = sexual stages (gametocytes), dose-response, read-out: IC50 sexual
[7] = P. falciparum gametocytes, average, read-out: IC50 Pf Gametocytes average, IC50 (µM) average

SMILES | % Control luminiscence [1] [%] | IC50 at 48 h [2] [µM] | Ratio IC50 HepG2/IC50 P. falciparum [3] | IC50 [3, 5] [µM] | IC50 [4] [nM] | IC50 [3, 6] [µM] | IC50 (HepG2 cells) [µM] | IC50 [3, 7] [µM]
COc1cc(NCC(C)CNCc2cn(Cc3ccccc3)c3ccccc23)nc2ccccc12 (stereo not shown) [TCMDC-140496] | 100 | 5 | 3 | 1.71 | 633 | – | – | –
COc1cc2nc(N3CCC(CNC(=O)c4ccc(-c5ccc(-c6noc(C)n6)cc5)cc4)CC3)nc(N)c2cc1OC [TCMDC-138754] | 97 | 4.33 | 39 | 0.11 | 139 | – | – | –
Fc1ccc2[nH]c(-c3ccc(-c4ccc(CN5CCC(CCN6CCCCC6)CC5)cc4)s3)nc2c1 [TCMDC-133932] | 100 | 3.79 | 27 | 0.14 | 142 | – | – | –
Cc1cccnc1Nc1nc(-c2ccccn2)cs1 [TCMDC-125846] | 100 | 3.02 | 30 | 0.1 | 687 | – | – | –
Cc1cccc2nc(-c3cccc(-c4cccc(CNCCN5CCNCC5)c4)c3)[nH]c12 [TCMDC-132873] | 100 | 7.76 | 16 | 0.5 | 970 | 0.497 | – | –
Cc1cccc2nc(-c3ccc(-c4ccc(CN5CCC(CCN6CCCCC6)CC5)cc4)cc3)[nH]c12 [TCMDC-133929] | 100 | 3.7 | 14 | 0.27 | 144 | 0.267 | – | –
COc1ccc(-c2cnc3[nH]cc(-c4ccncc4)c3c2)cc1OC [TCMDC-135853] | 92 | 3.1 | 3.46 | 0.9 | 126 | 0.897 | – | –
N=C(NCC1CC1c1ccccc1)c1cccc(C(=N)NCC2CC2c2ccccc2)n1 (stereo not shown) [TCMDC-137456] | 100 | 6.8 | 15 | 0.45 | 1760 | – | – | –
CN(CCCNCc1ccc2ccccc2c1)CCCNCc1ccc2ccccc2c1 [TCMDC-137908] | 100 | – | 94 | – | 391 | – | 4.68 | 0.05
O=C(Nc1ccc(N2CCNCC2)cc1)c1ccn2ncc(-c3cccc(Cl)c3)c2n1 [TCMDC-132663] | 95 | – | 6.35 | – | 922 | – | 22.2 | 3.5
O=C(NCCCCN1CCC(c2ccc3c(c2OCCO)CCCC3)CC1)c1ccc2oc(-c3ccc(C(F)(F)F)cc3)cc2c1 [TCMDC-138771] | 97 | – | 10 | – | 340 | – | 6.59 | 0.63
CC(C)CNCc1cccc(-c2cccc(CN(CCCN3CCN(C)CC3)C(=O)NC3CCCCC3)c2)c1 [TCMDC-140633] | 96 | – | 9 | – | 761 | 1.78 | 16.8 | 1.78
C[C@H](Cc1ccc(OCCCCCOc2ccc(C[C@@H](C)NC[C@H](O)c3cccc(Cl)c3)cc2)cc1)NC[C@H](O)c1cccc(Cl)c1 [TCMDC-131563] | 100 | – | 3.25 | – | 190 | – | 1.79 | 0.55
COc1ccc(CCNCCCCNCCc2ccc(OC)c3ccccc23)c2ccccc12 [TCMDC-137961] | 95 | – | <0.6 | – | 453 | – | 3.14 | > 5
Cc1cc(OCCN2CCCCC2)ccc1NC(=O)c1cccc2c(=O)n(Cc3ccc(Cl)cc3)cnc12 [TCMDC-136727] | 97 | – | 5 | – | 1060 | – | 4.73 | 0.95
COc1ccc(CNC2Cc3ccccc3C2)cc1-c1ccc(S(=O)(=O)NCCN2CCCC2)cc1 [TCMDC-132248] | 100 | – | 6 | – | 582 | 1.38 | 8.28 | 1.38
c1ccc(CSC2=NNC(c3ccccn3)S2)cc1 (stereo not shown) [TCMDC-123769] | 100 | – | >3 | – | 1480 | 7.98 | > 25 | 7.98
